Columns and labels:
[1] = target: T1, human indoleamine 2,3-dioxygenase 1 (hIDO1) (Homo sapiens, UniProt P14902, F270G); assay: X-ray crystal structure ([…] Å); activity titration (inhibition); type: biochemical
T1 construct: gene IDO1

[2] = target: T2, human indoleamine 2,3-dioxygenase 1 (hIDO1) (Homo sapiens, UniProt P14902); assay: X-ray crystal structure ([…] Å); activity titration; type: biochemical
T2 construct: gene IDO1

[3] = target: T1, human indoleamine 2,3-dioxygenase 1 (hIDO1); assay: X-ray crystal structure ([…] Å), two Trp bound; steady-state activity; type: binding
[4] = target: T2, human indoleamine 2,3-dioxygenase 1 (hIDO1); assay: X-ray crystal structure ([…] Å); steady-state activity; type: binding

T2 sequence (P14902 whole entry): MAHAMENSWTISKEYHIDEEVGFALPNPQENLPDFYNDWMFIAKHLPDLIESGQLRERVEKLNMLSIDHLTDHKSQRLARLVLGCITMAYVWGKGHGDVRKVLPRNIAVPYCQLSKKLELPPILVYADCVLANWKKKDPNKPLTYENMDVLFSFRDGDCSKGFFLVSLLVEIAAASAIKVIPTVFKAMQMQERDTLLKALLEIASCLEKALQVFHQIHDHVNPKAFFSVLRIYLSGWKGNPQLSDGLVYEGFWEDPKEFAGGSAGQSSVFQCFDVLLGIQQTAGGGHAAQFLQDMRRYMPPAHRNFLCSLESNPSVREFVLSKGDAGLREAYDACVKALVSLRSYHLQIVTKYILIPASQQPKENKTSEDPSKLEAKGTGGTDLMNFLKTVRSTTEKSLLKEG
T1 sequence (P14902 11-403 F270G): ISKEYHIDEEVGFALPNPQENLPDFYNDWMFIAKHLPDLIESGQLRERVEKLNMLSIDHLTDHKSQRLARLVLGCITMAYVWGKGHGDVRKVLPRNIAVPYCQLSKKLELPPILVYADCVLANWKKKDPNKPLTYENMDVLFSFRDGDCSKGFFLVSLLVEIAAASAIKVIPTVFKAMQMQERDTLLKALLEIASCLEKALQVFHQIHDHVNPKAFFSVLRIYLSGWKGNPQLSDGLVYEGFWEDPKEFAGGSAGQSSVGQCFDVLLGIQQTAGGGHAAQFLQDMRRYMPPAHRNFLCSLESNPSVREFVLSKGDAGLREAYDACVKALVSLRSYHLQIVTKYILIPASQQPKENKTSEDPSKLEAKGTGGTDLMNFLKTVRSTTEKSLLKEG

Row | Compound | Kd [1] | Kd [2] | X-ray crystal structure (3.03 Å), two Trp bound; steady-state activity [3] | X-ray crystal structure (2.40 Å); steady-state activity [4]
1 | OCCc1c[nH]c2ccccc12 [IDE, 3-indole ethanol] | ~100 µM | ~230 µM | – | –
2 | N[C@@H](Cc1c[nH]c2ccccc12)C(=O)O [Trp] | – | – | Crystal structure of the F270G-CN-Trp complex in a two Trp-bound state, where both the Sa and Si sites are occupied | The substrate Trp binds in the distal heme pocket, which is enclosed by the JK-Loop^C and the DE-Loop

— PMC5700043, “Structural insights into substrate and inhibitor binding sites in human indoleamine 2,3-dioxygenase 1” (Nature Communications, 2017)
